According to US8962608B2, “Cycloalkylnitrile pyrazole carboxamides as janus kinase inhibitors” (Merck Sharp & Dohme Corp., priority 2011, dated 2015):
pIC50: −log10 of the molar value.

How the values were obtained:
[1] = target: JAK1 (recombinant purified GST-tagged catalytic domain) (Homo sapiens (Human), UniProt P23458); experiment: biochemical;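 further: biochemical assay with HTRF read-out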
[2] = target: JAK2 (recombinant purified GST-tagged catalytic domain) (Homo sapiens (Human), UniProt O60674); experiment: biochemical;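 further: biochemical JAK kinase assay with HTRF detection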
Sequence of JAK2 (recombinant purified GST-tagged catalytic domain) (O60674 849-1124): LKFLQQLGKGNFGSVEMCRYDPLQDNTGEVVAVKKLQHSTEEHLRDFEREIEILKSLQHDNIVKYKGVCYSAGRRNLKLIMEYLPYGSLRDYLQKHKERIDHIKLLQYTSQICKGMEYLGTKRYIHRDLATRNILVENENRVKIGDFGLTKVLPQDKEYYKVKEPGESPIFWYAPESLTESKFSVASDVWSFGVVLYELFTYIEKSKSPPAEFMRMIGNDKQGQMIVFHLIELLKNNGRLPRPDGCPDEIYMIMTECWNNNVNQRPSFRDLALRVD

Sequence of JAK1 (recombinant purified GST-tagged catalytic domain) (P23458 875-1153): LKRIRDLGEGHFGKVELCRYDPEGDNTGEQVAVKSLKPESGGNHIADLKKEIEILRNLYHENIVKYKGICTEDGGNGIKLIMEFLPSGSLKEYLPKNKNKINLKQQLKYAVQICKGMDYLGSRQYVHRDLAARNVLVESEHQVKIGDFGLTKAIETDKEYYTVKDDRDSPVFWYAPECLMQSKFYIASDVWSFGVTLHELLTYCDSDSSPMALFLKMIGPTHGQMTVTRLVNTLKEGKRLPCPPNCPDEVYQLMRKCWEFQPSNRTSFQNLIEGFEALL

Structure (SMILES) | pIC50 [1] | pIC50 [2]
N#C[C@@H]1C[C@@H](NC2COC2)CC[C@H]1n1cc(C(N)=O)c(Nc2ccc(C(F)(F)F)cc2)n1 (single isomer, unassigned) [Example 30-17, 1-[(1R,2R,4S or 1S,2S,4R)-2-cyano-4-(oxetan-3-ylamino)cyclohexyl]-3-{[4-(trifluoromethyl)phenyl]amino}-1H-pyrazole-4-carboxamide] | 9.07 | 7.77
N#C[C@H]1C[C@H](N[C@H](C2CC2)C(F)(F)F)CC[C@@H]1n1cc(C(N)=O)c(Nc2ccc(C(F)(F)F)cc2)n1 (single isomer, unassigned) [Example 28-193, 1-[(1S,2S,4R or 1R,2R,4S)-2-cyano-4-{[(1R)-1-cyclopropyl-2,2,2-trifluoroethyl]amino}cyclo-hexyl]-3-{[4-(trifluoromethyl)phenyl]amino}-1H-pyrazole-4-carboxamide] | 6.78 | 6.00
N#C[C@H]1CCCC[C@@H]1n1cc(C(N)=O)c(Nc2ccc(S(=O)(=O)C(F)(F)F)c(CO)c2)n1 (racemic) [Example 17-17, 1-[(1S,2S and 1R,2R)-2-cyanocyclohexyl]-3-({3-(hydroxymethyl)-4-[(trifluoromethyl)sulfonyl]phenyl}amino)-1H-pyrazole-4-carboxamide] | 9.00 | 8.30
N#C[C@H]1C[C@@H](N2CCOCC2)CCC1n1cc(C(N)=O)c(Nc2ccc(S(=O)(=O)C(F)(F)F)cc2)n1 (mixture of isomers) [Example 27-13, 1-[(1S,2S,4S and 1R,2R,4R)-2-cyano-4-(morpholin-4-yl)cyclohexyl]-3-({4-[(trifluoromethyl)sulfonyl]phenyl)amino)-1H-pyrazole-4-carboxamide] | 9.52 | 8.22
C[C@H](NC1CC[C@H](n2cc(C(N)=O)c(Nc3ccc(C(F)(F)F)cc3)n2)[C@@H](C#N)C1)C1CC1 (single isomer, unassigned) [Example 28-191, 1-[(1S,2S or 1R,2R)-2-cyano-4-{[(1S)-1-cyclopropylethyl]amino}cyclo-hexyl]-3-{[4-(trifluoromethyl)phenyl]amino}-1H-pyrazole-4-carboxamide] | 9.05 | 6.98
CC1CN([C@H]2CC[C@H](n3cc(C(N)=O)c(Nc4ccccc4)n3)[C@@H](C#N)C2)C1 (single isomer, unassigned) [Example 28-141, 1-[(1S,2S,4S or 1R,2R,4R)-2-cyano-4-(3-methylazetidin-1-yl)cyclohexyl]-3-(phenylamino)-1H-pyrazole-4-carboxamide] | 9.00 | 7.36
N#C[C@H]1CCCCC1n1cc(C(N)=O)c(Nc2ccc3c(c2)CCC(=O)N3)n1 (mixture of isomers) [Example 17-11, 1-[(1S,2S and 1R,2R)-2-cyanocyclohexyl]-3-[(2-oxo-1,2,3,4-tetrahydroquinolin-6-yl)amino]-1H-pyrazole-4-carboxamide] | 8.70 | 8.10
N#C[C@H]1C[C@H](N2CC(F)C2)CC[C@@H]1n1cc(C(N)=O)c(Nc2ccc(S(=O)(=O)C(F)(F)F)cc2)n1 (single isomer, unassigned) [Example 28-112, 1-[(1S,2S,4R or 1R,2R,4S)-2-cyano-4-(3-fluoroazetidin-1-yl)cyclohexyl]-3-({4-[(trifluoro-methyl)sulfonyl]phenyl}amino)-1H-pyrazole-4-carboxamide] | 9.35 | 8.22
N#C[C@@H]1CCCC[C@H]1n1cc(C(N)=O)c(Nc2ccc(S(=O)(=O)N3CCC(Cc4ccccc4)CC3)cc2)n1 (single isomer, unassigned) [Example 17-69, 3-({4-[(4-benzylpiperidin-1-yl)sulfonyl]phenyl}amino)-1-[(1R,2R or 1S,2S)-2-cyanocyclohexyl]-1H-pyrazole-4-carboxamide] | 7.52 | 7.17
N#C[C@@H]1CCCC[C@H]1n1cc(C(N)=O)c(Nc2ccc(S(=O)(=O)Nc3ccccn3)cc2)n1 (single isomer, unassigned) [Example 17-67, 1-[(1R,2R or 1S,2S)-2-cyanocyclohexyl]-3-{[4-(pyridin-2-ylsulfamoyl)phenyl]amino}-1H-pyrazole-4-carboxamide] | 8.52 | 8.05
CC(C)(C(=O)O)c1ccc(Nc2nn([C@@H]3CCCC[C@H]3C#N)cc2C(N)=O)cc1 (single isomer, unassigned) [Example 17-43, 2-[4-({4-carbamoyl-1-[(1R,2R or 1S,2S)-2-cyanocyclohexyl]-1H-pyrazol-3-yl}amino)phenyl]-2-methylpropanoic acid] | 9.92 | 8.15
COC(=O)c1ncc(Nc2nn([C@H]3CCCC[C@@H]3C#N)cc2C(N)=O)cc1C (single isomer, unassigned) [Example 17-78, methyl 5-({4-carbamoyl-1-[(1R,2R or 1S,2S)-2-cyanocyclohexyl]-1H-pyrazol-3-yl}amino)-3-methylpyridine-2-carboxylate] | 8.22 | 7.77
N#C[C@H]1C[C@@H](NC2(CO)CC2)CCC1n1cc(C(N)=O)c(Nc2ccc(Cl)cc2)n1 (single isomer, unassigned) [Example 28-223, 3-[(4-chlorophenyl)amino]-1-[(1S,2S,4S or 1R,2R,4R)-2-cyano-4-{[1-(hydroxymethyl)cyclopropyl]a-mino}cyclohexyl]-1H-pyrazole-4-carboxamide] | 8.70 | 7.85
CN(C)CC1CCC(n2cc(C(N)=O)c(Nc3ccc(F)cc3)n2)[C@H](C#N)C1 (mixture of isomers) [Example 10, 1-((1R,2R and 1S,2S)-2-Cyano-4-((dimethylamino)methyl)cyclohexyl)-3-((4-fluorophenyl)amino)-1H-pyrazole-4-carboxamide] | 7.96 | 6.45
N#C[C@H]1CCCC[C@@H]1n1cc(C(N)=O)c(Nc2ccc(C(F)(F)F)nc2)n1 (single isomer, unassigned) [Example 17-101, 1-[(1S,2S or 1R,2R)-2-cyanocyclohexyl]-3-{[6-(trifluoromethyl)pyridin-3-yl]amino}-1H-pyrazole-4-carboxamide] | 8.70 | 8.05
N#C[C@H]1CC(NCC(F)F)CC[C@@H]1n1cc(C(N)=O)c(Nc2ccc(S(=O)(=O)C(F)F)cc2)n1 (single isomer, unassigned) [Example 28-122, 1-{(1S,2S or 1R,2R)-2-cyano-4-[(2,2-difluoroethyl)amino]cyclohexyl}-3-({4-[(difluoro-methyl)sulfonyl]phenyl}amino)-1H-pyrazole-4-carboxamide] | 9.05 | 8.22
N#C[C@H]1C[C@@H](NCC2(O)CC2)CC[C@@H]1n1cc(C(N)=O)c(Nc2ccc(C(F)(F)F)cc2)n1 (single isomer, unassigned) [Example 28-23, 1-[(1S,2S,4S or 1R,2R,4R)-2-cyano-4-{[(1-hydroxycyclo-propyl)methyl]amino}cyclo-hexyl]-3-{[4-(trifluoromethyl)phenyl]amino}-1H-pyrazole-4-carboxamide] | 9.35 | 7.64
CNC(=O)O[C@@H]1CCC(n2cc(C(N)=O)c(Nc3ccc(F)cc3)n2)[C@@H](C#N)C1 (mixture of isomers) [Example 34-6, (1R,3S,4S and 1S,3R,4R)-4-{4-carbamoyl-3-[(4-fluorophenyl)aminol-1H-pyrazol-1-yl}-3-cyanocyclohexyl methylcarbamate] | 9.00 | 7.92
CN(C)[C@H]1CC[C@H](n2cc(C(N)=O)c(Nc3ccnc(F)c3)n2)[C@@H](C#N)C1 (single isomer, unassigned) [Example 28-128, 1-[(1S,2S,4S or 1R,2R,4R)-2-cyano-4-(dimethylamino)cyclohexyl]-3-[(2-fluoropyridin-4-yl)amino]-1H-pyrazole-4-carboxamide] | 8.52 | 6.96
N#C[C@H]1CC(NCC2CCS(=O)(=O)C2)CC[C@@H]1n1cc(C(N)=O)c(Nc2ccc(S(=O)(=O)C(F)(F)F)cc2)n1 (single isomer, unassigned) [Example 28-152, 1-[(1S,2S or 1R,2R)-2-cyano-4-{[(1,1-dioxidotetrahydrothiophen-3-yl)methyl]amino}cyclohexyl]-3-({4-[(trifluoro-methyl)sulfonyl]phenyl}amino)-1H-pyrazole-4-carboxamide] | 9.40 | 8.00
N#C[C@H]1C[C@@H](O)CC[C@@H]1n1cc(C(N)=O)c(Nc2ccc(OC(F)(F)F)cc2)n1 (single isomer, unassigned) [Example 33-1, 1-((1S,2S,4S or 1R,2R,4R)-2-Cyano-4-hydroxycyclohexyl)-3-((4-(trifluoromethoxy)phenyl)amino)-1H-pyrazole-4-carboxamide] | 9.30 | 8.30
N#C[C@H]1C[C@H](NC2COC2)CC[C@@H]1n1cc(C(N)=O)c(Nc2ccc(CC(F)(F)F)cc2)n1 (single isomer, unassigned) [Example 28-77, 1-[(1S,2S,4R or 1R,2R,4S)-2-cyano-4-(oxetan-3-ylamino)cyclohexyl]-3-{[4-(2,2,2-trifluoroethyl)phenyl]amino}-1H-pyrazole-4-carboxamide] | 9.15 | 8.40
N#C[C@@H]1C[C@H](C(=O)NC2CC(F)(F)C2)CC[C@H]1n1cc(C(N)=O)c(Nc2ccc(Cl)cc2)n1 (single isomer, unassigned) [Example 35-18, 3-[(4-chlorophenyl)amino]-1-{(1R,2R,4R or 1S,2S,4S)-2-cyano-4-[(3,3-difluorocyclobutyl)carbamoyl]cyclohexyl}-1H-pyrazole-4-carboxamide] | 7.89 | 6.87
N#C[C@H]1CCCC[C@@H]1n1cc(C(N)=O)c(Nc2ccc(S(=O)(=O)N3CCC4(CC3)OCCO4)cc2)n1 (single isomer, unassigned) [Example 17-92, 1-[(1R,2R or 1S,2S)-2-cyanocyclohexyl]-3-{[4-(1,4-dioxa-8-azaspiro[4.5]dec-8-ylsulfonyl)phenyl]amino}-1H-pyrazole-4-carboxamide] | 9.05 | 8.52
